Laboratory results as given in patent US6229016A, “Method for treating tumors using 2-aryl-naphthyridin-4-ones” (priority 2000, dated 2001).

Experiments:
Assay type in all cases: cell-based
[1] = test system: HCT-116 colon cancer cell line; experiment: NCI in vitro screen, colon cancer HCT-116; details: Homo sapiens; HCT-1.16 (head); HCT-116 (footnote); read-out: Cytotoxicity log GI50 (converted)
[2] = test system: MDA-MB-435 breast cancer cell line; experiment: NCI in vitro screen, breast cancer MDA-MB-435; details: Homo sapiens, read-out: Cytotoxicity log GI50 (converted)
[3] = test system: HL-60(TB) leukemia cell line; experiment: cells; details: Homo sapiens; HL-60(TB); read-out: Cytotoxicity log GI50 (converted)
[4] = test system: MDA-N breast cancer cell line; experiment: NCI in vitro screen, breast cancer MDA-N; details: Homo sapiens, read-out: Cytotoxicity log GI50 (converted)
Excerpt: (§1) Compounds 41-51 and 53-68 were submitted to NCI and assayed in the NCI's in vitro disease-oriented antitumor screen, which involves determination of a test compound's effects on the growth of approximately 60 human tumor cell lines. See, M. R. Boyd, et al. In Cancer: Principles and Practice of Oncology Updates; De Vita, V. T., Hellman, S., Rosenberg, S. A., Eds; J. B. Lippincoft: Philadelphia, pp 1-12 (1989); and A. Monks, et al. J. Natl. Cancer Inst. 83:757 (1991). These lines include leukemia, non-small cell lung, colon, central nervous system (CNS), melanoma, ovarian, renal, prostate, and breast cancers.
(§2) Compounds 29'-51' were submitted to NCI and assayed in the NCI's in vitro disease-oriented antitumor screen, using the techniques described in Example 5. This assay involves determinations of a test agent's effect on growth parameters against a panel of approximately 60 human tumor cell lines, derived largely from solid tumors, including non-small cell lung, colon, central nervous system, renal, ovarian, prostate, and breast cancers, plus a few leukemia cell lines. The cytotoxic effects of each compound are obtained as GI50 or […] values, which represent the molar drug concentrations required to cause half growth inhibition and total growth inhibition, respectively. The results are expressed for each cell line as average log GI50 values in Table 4, as log GI50 values in Table 5, and as log TGI values and average log TGI values in Table 6.

[5] = test system: PC-3 prostate cancer cell line; experiment: NCI in vitro screen, prostate cancer PC-3; details: Homo sapiens, read-out: Cytotoxicity log GI50 (converted)
Excerpt: as §1, §2

[6] = test system: OVCAR-3 ovarian cancer cell line; experiment: NCI in vitro screen, ovarian cancer OVCAR-3; details: Homo sapiens, read-out: Cytotoxicity log GI50 (converted)
[7] = test system: U-251 CNS cancer cell line; experiment: NCI in vitro screen, CNS cancer U-251; details: Homo sapiens, read-out: Cytotoxicity log GI50 (converted)
[8] = test system: NCI's 60 human tumor cell line; experiment: NCI 60 human tumor cell line in vitro screen (average / whole panel); details: calculated from all cell lines tested, molar concentrations, read-out: average log GI50 (converted)
[9] = test system: SK-MEL-5 melanoma cell line; experiment: NCI in vitro screen, melanoma SK-MEL-5; details: Homo sapiens, read-out: Cytotoxicity log GI50 (converted)
Excerpt: as §1, §2

[10] = test system: SF-295 CNS cancer cell line; experiment: NCI in vitro screen, CNS cancer SF-295; details: Homo sapiens, read-out: Cytotoxicity log GI50 (converted)
[11] = test system: NCI-H460 non-small cell lung cancer cell line; experiment: NCI in vitro screen, non-small cell lung cancer NCI-H460; details: Homo sapiens, read-out: Cytotoxicity log GI50 (converted)
[12] = test system: 786-0 renal cancer cell line; experiment: NCI in vitro screen, renal cancer 786-0; details: Homo sapiens, read-out: Cytotoxicity log GI50 (converted)
Excerpt: as §1, §2

Compound	GI50 [1] [µM]	GI50 [2] [µM]	GI50 [3] [µM]	GI50 [4] [µM]	GI50 [5] [µM]	GI50 [6] [µM]	GI50 [7] [µM]	GI50 [8] [µM]	GI50 [9] [µM]	GI50 [10] [µM]	GI50 [11] [µM]	GI50 [12] [µM]
COc1cccc(-c2cc(=O)c3c(C)ccnc3[nH]2)c1 [Compound 45]	0.0447	< 0.01	0.0129	< 0.01	0.0263	0.0257	0.0589	0.0589	0.0224	0.0288	0.0479	0.0513
Cc1ccc2c(n1)N=C(c1ccc3ccccc3c1)CC2=O [Compound 50, 2-(β-Naphthyl)-7-methyl-1,8-naphthyridin-4-one]	3.98	1.58	1.78	1.95	2.63	3.63	4.57	4.57	3.31	3.8	3.8	5.37
COc1ccccc1-c1cc(=O)c2cccnc2[nH]1 [Compound 39]	27.5	39.8	38.9	20	29.5	47.9	67.6	40.7	31.6	23.4	38.9	36.3
O=C1CC(c2cccc3ccccc23)=Nc2ncccc21 [Compound 42, 2-(α-Naphthyl)-1,8-naphthyridin-4-one]	< 0.01	< 0.01	< 0.01	< 0.01	0.0178	< 0.01	0.0102		< 0.01	< 0.01	0.0389	0.0151
Cc1cnc2c(c1)C(=O)CC(c1cccc3ccccc13)=N2 [Compound 44, 2-(α-Naphthyl)-6-methyl-1,8-naphthyridin-4-one]	< 0.01	< 0.01	< 0.01	< 0.01	< 0.01	< 0.01	< 0.01	0.0191	< 0.01	< 0.01	< 0.01	< 0.01
Cc1ccnc2c1C(=O)CC(c1ccc3ccccc3c1)=N2 [Compound 48, 2-(β-Naphthyl)-5-methyl-1,8-naphthyridin-4-one]	0.427	0.204	0.204	0.204	1.38	1.29	0.646	1.2	0.437	1.48	1.12	2.4
Cc1ccnc2[nH]c(-c3cccc(Cl)c3)cc(=O)c12 [33']	0.0158	< 0.01	0.01	0.0117	15.5	0.0316	0.0525	0.158	0.0417	0.0407	0.0389	0.0331
Cc1cccc(C2=Nc3nc(C)ccc3C(=O)C2)c1 [Compound 40, 2-(3'-Methylphenyl)-7-methyl-1,8-naphthyridin-4-one]	0.12	0.0324	0.0269	0.0316	0.138	0.49	0.2	0.0977	0.126	0.0603	0.0178	0.427
Cc1cccc(C2=Nc3nc(C)cc(C)c3C(=O)C2)c1 [Compound 41, 2-(3'-Methylphenyl)-5,7-dimethyl-1,8-naphthyridin-4-one]	17.8	20	12.9	20.9	31.6	30.2	53.7		34.7	64.6	44.7	56.2
